Data as given in ChEMBL document CHEMBL1201862, “PubChem BioAssay data set” (2004).
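In this assay, cells in 96-well plates receive the compound at five concentrations for 48 hours. Endpoints are linearly interpolated between the surrounding concentrations. The concentration for 50% growth inhibition is given as GI50.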 The source made the active and inactive calls. Rule as the data show it: active = GI50 up to about 1.1 µM and inactive = higher.

Tests used:
Assay in all cases: NCI-60 cell line screen, 48 h
786-0 = system: 786-0
A498 = system: A498
A549 = system: A549
ACHN = system: ACHN
BT-549 = system: BT-549
CAKI-1 = system: CAKI-1
CCRF-CEM = system: CCRF-CEM
COLO 205 = system: COLO 205
DU-145 = system: DU-145
EKVX = system: EKVX
HCC 2998 = system: HCC 2998
HCT-116 = system: HCT-116
HCT-15 = system: HCT-15
HL-60 = system: HL-60
HOP-62 = system: HOP-62
HOP-92 = system: HOP-92
HT-29 = system: HT-29
Hs-578T = system: Hs-578T
IGROV-1 = system: IGROV-1
K562 = system: K562
KM12 = system: KM12
LOX IMVI = system: LOX IMVI
M14 = system: M14
MCF7 = system: MCF7
MDA-MB-231 = system: MDA-MB-231
MDA-MB-435 = system: MDA-MB-435
MOLT-4 = system: MOLT-4
NCI-H226 = system: NCI-H226
NCI-H23 = system: NCI-H23
NCI-H460 = system: NCI-H460
NCI-H522 = system: NCI-H522
NCI/ADR-RES = system: NCI/ADR-RES
OVCAR-3 = system: OVCAR-3
OVCAR-4 = system: OVCAR-4
OVCAR-5 = system: OVCAR-5
OVCAR-8 = system: OVCAR-8
PC-3 = system: PC-3
RPMI-8226 = system: RPMI-8226
RXF 393 = system: RXF 393
SF-268 = system: SF-268
SF-295 = system: SF-295
SF-539 = system: SF-539
SK-MEL-28 = system: SK-MEL-28
SK-MEL-2 = system: SK-MEL-2
SK-MEL-5 = system: SK-MEL-5
SK-OV-3 = system: SK-OV-3
SN12C = system: SN12C
SNB-19 = system: SNB-19
SNB-75 = system: SNB-75
SR = system: SR
SW-620 = system: SW-620
T47D = system: T47D
TK-10 = system: TK-10
U-251 = system: U-251
UACC-257 = system: UACC-257
UACC-62 = system: UACC-62
UO-31 = system: UO-31
MDA-N = system: MDA-N
Malme-3M = system: Malme-3M

Measured: GI50

CCCC[N+](CCCC)(CCCC)CCCC.O=S(=O)([O-])ON=C1c2ccccc2-c2ccccc21
10 µM: HCT-15
inactive: 786-0 > 100 µM | A498 > 100 µM | A549 > 100 µM | ACHN > 100 µM | BT-549 > 100 µM | CAKI-1 > 100 µM | CCRF-CEM > 100 µM | COLO 205 > 100 µM | DU-145 > 100 µM | EKVX > 100 µM | HCC 2998 > 100 µM | HCT-116 > 100 µM | HL-60 36 µM | HOP-62 > 100 µM | HOP-92 > 100 µM | HT-29 > 100 µM | Hs-578T > 100 µM | IGROV-1 > 100 µM | K562 > 100 µM | KM12 > 100 µM | LOX IMVI > 100 µM | M14 > 100 µM | MCF7 > 100 µM | MDA-MB-231 > 100 µM | MDA-MB-435 > 100 µM | MOLT-4 > 100 µM | NCI-H226 > 100 µM | NCI-H23 > 100 µM | NCI-H460 > 100 µM | NCI-H522 47.2 µM | NCI/ADR-RES > 100 µM | OVCAR-3 > 100 µM | OVCAR-4 > 100 µM | OVCAR-5 > 100 µM | OVCAR-8 > 100 µM | PC-3 > 100 µM | RPMI-8226 50.8 µM | RXF 393 > 100 µM | SF-268 > 100 µM | SF-295 > 100 µM | SF-539 > 100 µM | SK-MEL-28 > 100 µM | SK-MEL-2 > 100 µM | SK-MEL-5 61.5 µM | SK-OV-3 > 100 µM | SN12C > 100 µM | SNB-19 > 100 µM | SNB-75 > 100 µM | SR > 100 µM | SW-620 > 100 µM | T47D > 100 µM | TK-10 > 100 µM | U-251 > 100 µM | UACC-257 > 100 µM | UACC-62 > 100 µM | UO-31 > 100 µM

Cc1ccc2[nH]c3[nH]c(=S)[nH]c(=O)c3c2c1
inactive: 786-0 > 100 µM | A498 > 100 µM | A549 > 100 µM | ACHN > 100 µM | BT-549 > 100 µM | CAKI-1 > 100 µM | CCRF-CEM > 100 µM | COLO 205 > 100 µM | DU-145 > 100 µM | EKVX > 100 µM | HCC 2998 > 100 µM | HCT-116 > 100 µM | HL-60 > 100 µM | HOP-62 > 100 µM | HOP-92 > 100 µM | HT-29 > 100 µM | Hs-578T > 100 µM | IGROV-1 > 100 µM | K562 96.4 µM | KM12 > 100 µM | LOX IMVI > 100 µM | M14 > 100 µM | MCF7 > 100 µM | MDA-MB-231 > 100 µM | MDA-MB-435 > 100 µM | MDA-N > 100 µM | MOLT-4 97.5 µM | Malme-3M > 100 µM | NCI-H226 > 100 µM | NCI-H23 > 100 µM | NCI-H522 > 100 µM | NCI/ADR-RES > 100 µM | OVCAR-3 72.9 µM | OVCAR-5 > 100 µM | OVCAR-8 > 100 µM | RPMI-8226 72.8 µM | RXF 393 > 100 µM | SF-268 > 100 µM | SF-295 > 100 µM | SF-539 > 100 µM | SK-MEL-2 > 100 µM | SK-MEL-5 > 100 µM | SK-OV-3 > 100 µM | SN12C > 100 µM | SNB-19 > 100 µM | SNB-75 40 µM | SR > 100 µM | SW-620 > 100 µM | T47D > 100 µM | TK-10 > 100 µM | UACC-257 > 100 µM | UACC-62 > 100 µM | UO-31 > 100 µM
> 100 µM: HCT-15

C=C1C(=O)[C@@]23CC1C(O)[C@@H](OC(C)=O)[C@@H]2C1(C)C(OC(C)=O)C[C@@H](OC(C)=O)C(C)(C)[C@@H]1C[C@H]3OC(C)=O (stereo partly specified)
2.6 µM: HCT-15
inactive: 786-0 5.52 µM | A498 > 10 µM | ACHN > 10 µM | BT-549 1.47 µM | CAKI-1 6.27 µM | DU-145 > 10 µM | HCC 2998 > 10 µM | HOP-62 > 10 µM | Hs-578T 2.9 µM | LOX IMVI 6.35 µM | MCF7 2.58 µM | MDA-N 3.85 µM | NCI-H226 > 10 µM | NCI/ADR-RES > 10 µM | PC-3 > 10 µM | SN12C 3.77 µM | T47D 2.12 µM

COc1ccc(COCC[C@H](C)OC2OC(CO)C(O)C(O)C2O)cc1 (stereo partly specified)
> 100 µM: HCT-15
inactive: 786-0 > 100 µM | A498 > 100 µM | A549 > 100 µM | ACHN > 100 µM | BT-549 > 100 µM | CAKI-1 > 100 µM | CCRF-CEM > 100 µM | COLO 205 > 100 µM | DU-145 > 100 µM | EKVX > 100 µM | HCC 2998 > 100 µM | HCT-116 > 100 µM | HL-60 > 100 µM | HOP-62 > 100 µM | HOP-92 > 100 µM | HT-29 > 100 µM | Hs-578T > 100 µM | IGROV-1 > 100 µM | K562 > 100 µM | KM12 > 100 µM | LOX IMVI > 100 µM | M14 > 100 µM | MCF7 > 100 µM | MDA-MB-231 > 100 µM | MDA-MB-435 > 100 µM | MOLT-4 > 100 µM | NCI-H226 > 100 µM | NCI-H23 > 100 µM | NCI-H460 > 100 µM | NCI-H522 > 100 µM | NCI/ADR-RES > 100 µM | OVCAR-3 > 100 µM | OVCAR-4 > 100 µM | OVCAR-5 > 100 µM | OVCAR-8 > 100 µM | PC-3 > 100 µM | RPMI-8226 > 100 µM | RXF 393 > 100 µM | SF-268 > 100 µM | SF-295 > 100 µM | SF-539 > 100 µM | SK-MEL-28 > 100 µM | SK-MEL-2 > 100 µM | SK-MEL-5 > 100 µM | SK-OV-3 > 100 µM | SN12C > 100 µM | SNB-19 > 100 µM | SNB-75 > 100 µM | SR > 100 µM | SW-620 > 100 µM | T47D > 100 µM | TK-10 > 100 µM | U-251 > 100 µM | UACC-257 > 100 µM | UACC-62 > 100 µM | UO-31 > 100 µM
